Reference: doi:10.1101/2020.06.11.145995v1 (biorxiv, 2020)
Read-outs that look alike come from different tables or passages of the source.

What was measured:
Test in all cases: biochemical
[1] = biological target: ABL1(F317I)-phosphorylated (Homo sapiens, UniProt P00519, F317I)
[2] = biological target: CSF1R-autoinhibited (Homo sapiens, UniProt P07333); conditions: read-out: CPT-1-70-1 (1uM) % control
[3] = biological target: DYRK1B (Homo sapiens, UniProt Q9Y463)
[4] = biological target: KIT(V559D,T670I) (Homo sapiens, UniProt P10721, T670I/V559D); conditions: read-out: CPT-1-70-1 (1uM) % control
[5] = biological target: KIT-autoinhibited (Homo sapiens, UniProt P10721); conditions: read-out: CPT-1-70-1 (1uM) % control
[6] = biological target: HASPIN (Homo sapiens, UniProt Q8TF76); conditions: read-out: CPT-1-70-1 (1uM) % control
[7] = biological target: ERBB3 (Homo sapiens, UniProt P21860); conditions: read-out: CPT-1-70-1 (1uM) % control
[8] = biological target: EPHA2 (Homo sapiens, UniProt P29317); conditions: read-out: CPT-1-70-1 (1uM) % control
[9] = biological target: ERK3 (Homo sapiens, UniProt Q16659); conditions: read-out: CPT-1-70-1 (1uM) % control
[10] = biological target: ERBB2 (Homo sapiens, UniProt P04626); conditions: read-out: CPT-1-70-1 (1uM) % control
[11] = biological target: EPHB1 (Homo sapiens, UniProt P54762); conditions: read-out: CPT-1-70-1 (1uM) % control
[12] = biological target: EIF2AK1 (Homo sapiens, UniProt Q9BQI3); conditions: read-out: CPT-1-70-1 (1uM) % control
[13] = biological target: ERK4 (Homo sapiens, UniProt P31152); conditions: read-out: CPT-1-70-1 (1uM) % control
[14] = biological target: EPHA5 (Homo sapiens, UniProt P54756); conditions: read-out: CPT-1-70-1 (1uM) % control
[15] = biological target: ALK(L1196M) (Homo sapiens, UniProt Q9UM73, L1196M); conditions: read-out: CPT-1-70-1 (1uM) % control
[16] = biological target: ALK(C1156Y) (Homo sapiens, UniProt Q9UM73, C1156Y); conditions: read-out: CPT-1-70-1 (1uM) % control
[17] = biological target: EPHA6 (Homo sapiens, UniProt Q9UF33); conditions: read-out: CPT-1-70-1 (1uM) % control
[18] = biological target: ERBB4 (Homo sapiens, UniProt Q15303); conditions: read-out: CPT-1-70-1 (1uM) % control
[19] = biological target: EPHA8 (Homo sapiens, UniProt P29322); conditions: read-out: CPT-1-70-1 (1uM) % control
[20] = biological target: EPHA1 (Homo sapiens, UniProt P21709); conditions: read-out: CPT-1-70-1 (1uM) % control
[21] = biological target: ERK5 (Homo sapiens, UniProt Q13164); conditions: read-out: CPT-1-70-1 (1uM) % control
[22] = biological target: EGFR(T790M) (Homo sapiens, UniProt P00533, T790M); conditions: read-out: CPT-1-70-1 (1uM) % control
[23] = biological target: EPHB6 (Homo sapiens, UniProt O15197); conditions: read-out: CPT-1-70-1 (1uM) % control
[24] = biological target: EPHB3 (Homo sapiens, UniProt P54753); conditions: read-out: CPT-1-70-1 (1uM) % control
[25] = biological target: EPHA3 (Homo sapiens, UniProt P29320); conditions: read-out: CPT-1-70-1 (1uM) % control
[26] = biological target: ERK1 (Homo sapiens, UniProt P27361); conditions: read-out: CPT-1-70-1 (1uM) % control
[27] = biological target: EPHA7 (Homo sapiens, UniProt Q15375); conditions: read-out: CPT-1-70-1 (1uM) % control
[28] = biological target: ERK2 (Homo sapiens, UniProt P28482); conditions: read-out: CPT-1-70-1 (1uM) % control
[29] = biological target: EPHB4 (Homo sapiens, UniProt P54760); conditions: read-out: CPT-1-70-1 (1uM) % control
[30] = read-out: CPT-1-70-1 (1uM) % control
[31] = read-out: HYJ-2-002-1 (1uM) % control

Sequence of ABL1(F317I)-phosphorylated (P00519 whole entry F317I): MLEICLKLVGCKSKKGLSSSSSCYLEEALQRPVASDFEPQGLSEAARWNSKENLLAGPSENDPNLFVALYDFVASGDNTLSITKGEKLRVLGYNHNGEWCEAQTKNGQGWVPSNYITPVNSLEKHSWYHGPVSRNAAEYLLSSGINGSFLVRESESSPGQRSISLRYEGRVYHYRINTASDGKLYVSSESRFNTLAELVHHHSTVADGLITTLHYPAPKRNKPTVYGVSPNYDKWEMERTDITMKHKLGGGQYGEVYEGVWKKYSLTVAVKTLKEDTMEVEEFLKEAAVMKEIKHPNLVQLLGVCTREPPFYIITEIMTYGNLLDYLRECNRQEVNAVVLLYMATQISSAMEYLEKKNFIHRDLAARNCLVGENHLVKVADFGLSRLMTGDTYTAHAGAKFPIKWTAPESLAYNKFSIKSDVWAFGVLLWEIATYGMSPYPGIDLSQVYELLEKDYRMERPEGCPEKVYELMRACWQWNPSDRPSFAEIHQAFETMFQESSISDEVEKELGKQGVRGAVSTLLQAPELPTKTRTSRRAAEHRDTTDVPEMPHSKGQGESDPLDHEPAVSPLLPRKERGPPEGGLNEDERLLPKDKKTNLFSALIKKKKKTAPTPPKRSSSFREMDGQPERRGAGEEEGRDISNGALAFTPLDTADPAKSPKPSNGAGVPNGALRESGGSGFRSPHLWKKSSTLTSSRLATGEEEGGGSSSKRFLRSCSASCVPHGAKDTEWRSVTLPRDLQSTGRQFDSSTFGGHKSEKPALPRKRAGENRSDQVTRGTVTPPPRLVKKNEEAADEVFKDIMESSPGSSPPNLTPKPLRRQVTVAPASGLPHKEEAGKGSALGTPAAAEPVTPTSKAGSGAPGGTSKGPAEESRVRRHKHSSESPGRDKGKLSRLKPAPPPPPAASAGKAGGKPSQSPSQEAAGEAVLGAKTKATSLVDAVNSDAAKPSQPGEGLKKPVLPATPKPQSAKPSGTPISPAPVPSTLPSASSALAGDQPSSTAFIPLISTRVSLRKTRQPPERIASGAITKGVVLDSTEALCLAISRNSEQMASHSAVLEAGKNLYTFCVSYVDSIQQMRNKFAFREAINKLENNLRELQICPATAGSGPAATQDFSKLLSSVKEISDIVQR
Sequence of DYRK1B (Q9Y463 whole entry): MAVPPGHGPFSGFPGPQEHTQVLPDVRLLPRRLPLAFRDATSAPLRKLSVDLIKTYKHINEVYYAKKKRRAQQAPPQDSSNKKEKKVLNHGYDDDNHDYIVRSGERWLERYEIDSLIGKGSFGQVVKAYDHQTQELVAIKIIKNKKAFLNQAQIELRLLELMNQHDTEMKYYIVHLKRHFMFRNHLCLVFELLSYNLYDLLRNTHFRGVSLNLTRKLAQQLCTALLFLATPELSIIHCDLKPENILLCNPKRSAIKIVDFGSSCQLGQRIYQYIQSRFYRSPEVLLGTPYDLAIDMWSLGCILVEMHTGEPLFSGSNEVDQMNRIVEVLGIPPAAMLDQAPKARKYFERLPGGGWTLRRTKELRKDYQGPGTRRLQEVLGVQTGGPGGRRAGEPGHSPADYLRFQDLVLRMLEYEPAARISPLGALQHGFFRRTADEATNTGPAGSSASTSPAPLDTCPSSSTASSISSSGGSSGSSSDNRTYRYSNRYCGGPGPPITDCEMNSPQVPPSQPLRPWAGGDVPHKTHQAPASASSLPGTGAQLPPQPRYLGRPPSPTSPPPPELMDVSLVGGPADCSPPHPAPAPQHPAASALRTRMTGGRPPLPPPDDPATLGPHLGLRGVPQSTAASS
Sequence of ERK1 (P27361 whole entry): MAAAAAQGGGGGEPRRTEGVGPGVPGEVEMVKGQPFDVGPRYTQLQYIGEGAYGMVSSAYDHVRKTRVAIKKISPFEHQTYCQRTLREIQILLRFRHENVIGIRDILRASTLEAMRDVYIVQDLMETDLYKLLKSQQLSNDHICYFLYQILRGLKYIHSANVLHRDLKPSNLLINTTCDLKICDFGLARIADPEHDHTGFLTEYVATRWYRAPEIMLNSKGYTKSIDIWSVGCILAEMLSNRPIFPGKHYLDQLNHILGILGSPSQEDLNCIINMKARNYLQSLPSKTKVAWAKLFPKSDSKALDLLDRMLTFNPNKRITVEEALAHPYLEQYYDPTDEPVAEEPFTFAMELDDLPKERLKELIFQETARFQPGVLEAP
Sequence of ERBB3 (P21860 whole entry): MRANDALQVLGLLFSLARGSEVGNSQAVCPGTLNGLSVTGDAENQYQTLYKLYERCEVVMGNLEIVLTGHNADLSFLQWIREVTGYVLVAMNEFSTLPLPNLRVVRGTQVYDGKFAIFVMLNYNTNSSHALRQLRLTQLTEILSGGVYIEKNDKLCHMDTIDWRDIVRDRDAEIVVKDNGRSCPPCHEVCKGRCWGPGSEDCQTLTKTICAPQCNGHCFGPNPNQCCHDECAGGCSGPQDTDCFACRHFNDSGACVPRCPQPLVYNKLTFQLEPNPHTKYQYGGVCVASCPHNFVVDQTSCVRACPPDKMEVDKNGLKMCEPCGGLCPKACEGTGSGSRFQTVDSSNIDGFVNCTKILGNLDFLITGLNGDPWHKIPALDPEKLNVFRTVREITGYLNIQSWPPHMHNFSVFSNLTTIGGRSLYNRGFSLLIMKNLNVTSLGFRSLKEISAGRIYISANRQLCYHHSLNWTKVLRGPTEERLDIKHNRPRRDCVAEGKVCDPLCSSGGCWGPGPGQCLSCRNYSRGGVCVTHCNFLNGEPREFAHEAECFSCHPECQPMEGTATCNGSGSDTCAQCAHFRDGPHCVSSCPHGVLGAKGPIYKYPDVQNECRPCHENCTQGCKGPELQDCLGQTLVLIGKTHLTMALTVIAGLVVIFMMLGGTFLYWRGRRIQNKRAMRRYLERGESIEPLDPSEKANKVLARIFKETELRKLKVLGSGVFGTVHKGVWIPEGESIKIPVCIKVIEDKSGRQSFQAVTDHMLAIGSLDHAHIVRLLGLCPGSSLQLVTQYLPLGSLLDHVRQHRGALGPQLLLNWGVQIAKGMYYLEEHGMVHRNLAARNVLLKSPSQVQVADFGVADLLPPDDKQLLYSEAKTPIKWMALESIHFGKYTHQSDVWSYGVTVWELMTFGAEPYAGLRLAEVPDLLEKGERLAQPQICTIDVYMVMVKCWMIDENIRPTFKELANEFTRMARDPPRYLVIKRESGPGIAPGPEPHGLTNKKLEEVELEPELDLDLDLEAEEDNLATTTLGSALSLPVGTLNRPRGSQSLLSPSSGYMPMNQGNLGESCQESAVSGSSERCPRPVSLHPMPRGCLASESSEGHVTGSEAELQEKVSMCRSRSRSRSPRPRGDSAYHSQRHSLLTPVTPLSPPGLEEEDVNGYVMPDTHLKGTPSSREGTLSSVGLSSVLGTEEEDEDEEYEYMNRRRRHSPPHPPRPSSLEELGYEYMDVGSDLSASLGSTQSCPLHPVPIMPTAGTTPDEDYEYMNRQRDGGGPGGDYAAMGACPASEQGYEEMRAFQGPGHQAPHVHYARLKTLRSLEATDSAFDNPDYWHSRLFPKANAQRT
Sequence of EPHA8 (P29322 whole entry): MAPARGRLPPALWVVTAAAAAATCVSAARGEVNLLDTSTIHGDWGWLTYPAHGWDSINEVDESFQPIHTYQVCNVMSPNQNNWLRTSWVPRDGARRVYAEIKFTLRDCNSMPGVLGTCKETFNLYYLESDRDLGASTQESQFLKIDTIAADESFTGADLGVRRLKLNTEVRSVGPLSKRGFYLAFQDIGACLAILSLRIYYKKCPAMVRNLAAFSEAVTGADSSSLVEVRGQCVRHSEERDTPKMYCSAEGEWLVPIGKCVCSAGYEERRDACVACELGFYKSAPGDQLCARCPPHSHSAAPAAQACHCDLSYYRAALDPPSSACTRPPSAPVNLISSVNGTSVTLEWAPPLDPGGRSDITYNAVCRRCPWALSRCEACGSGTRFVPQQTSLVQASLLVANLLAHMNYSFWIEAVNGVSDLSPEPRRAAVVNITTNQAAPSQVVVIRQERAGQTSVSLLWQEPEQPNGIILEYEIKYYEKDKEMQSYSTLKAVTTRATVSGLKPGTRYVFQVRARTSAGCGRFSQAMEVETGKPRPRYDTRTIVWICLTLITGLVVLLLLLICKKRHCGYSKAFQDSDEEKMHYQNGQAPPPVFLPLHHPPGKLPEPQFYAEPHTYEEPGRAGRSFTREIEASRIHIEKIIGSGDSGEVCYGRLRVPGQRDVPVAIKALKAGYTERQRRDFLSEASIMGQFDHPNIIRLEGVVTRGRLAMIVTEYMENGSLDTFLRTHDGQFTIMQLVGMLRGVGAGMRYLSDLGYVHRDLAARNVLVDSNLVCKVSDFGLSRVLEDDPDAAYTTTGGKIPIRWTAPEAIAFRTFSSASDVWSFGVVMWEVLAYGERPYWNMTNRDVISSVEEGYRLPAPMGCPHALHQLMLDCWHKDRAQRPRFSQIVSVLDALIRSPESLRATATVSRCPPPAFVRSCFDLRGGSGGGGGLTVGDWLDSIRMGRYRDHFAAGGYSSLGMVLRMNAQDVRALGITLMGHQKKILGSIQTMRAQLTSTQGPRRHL
Sequence of ERK2 (P28482 whole entry): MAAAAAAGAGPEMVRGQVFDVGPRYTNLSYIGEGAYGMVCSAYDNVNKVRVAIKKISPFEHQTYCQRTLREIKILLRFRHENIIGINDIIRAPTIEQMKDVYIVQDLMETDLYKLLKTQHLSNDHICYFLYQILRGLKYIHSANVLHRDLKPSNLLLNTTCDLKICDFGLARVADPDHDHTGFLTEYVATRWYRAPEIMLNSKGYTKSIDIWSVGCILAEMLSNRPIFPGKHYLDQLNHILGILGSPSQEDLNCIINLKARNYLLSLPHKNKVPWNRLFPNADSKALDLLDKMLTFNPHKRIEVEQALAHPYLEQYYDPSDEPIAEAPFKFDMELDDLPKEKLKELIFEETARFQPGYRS

CN1CCN(c2ccc(Nc3nc(Oc4ccc(NC(=O)CCl)cc4)c4cc[nH]c4n3)cc2)CC1 [CPT1-70-1] was tested, and the remaining activity at 1 µM [1, 30] was 100%, the remaining activity at 1 µM [2] was 1.4% and the remaining activity at 1 µM [3, 30] was 79%. It also gave a remaining activity at 1 µM [4] of 28%, a remaining activity at 1 µM [5] of 39% and a remaining activity at 1 µM [6] of 100%. The remaining activity at 1 µM [7] was 53%, the remaining activity at 1 µM [8] was 96% and the remaining activity at 1 µM [9] was 1%. The remaining activity at 1 µM [10] was 57%, the remaining activity at 1 µM [11] was 84% and the remaining activity at 1 µM [12] was 100%. The remaining activity at 1 µM [13] was 96%, the remaining activity at 1 µM [14] was 100% and the remaining activity at 1 µM [15] was 100%. For the same compound, the remaining activity at 1 µM [16] was 52%, the remaining activity at 1 µM [17] was 100% and the remaining activity at 1 µM [18] was 4.6%. For the same compound, the remaining activity at 1 µM [19] was 53%, the remaining activity at 1 µM [20] was 79% and the remaining activity at 1 µM [21] was 87%. It also gave a remaining activity at 1 µM [22] of 0.8%, a remaining activity at 1 µM [23] of 44% and a remaining activity at 1 µM [24] of 100%. The remaining activity at 1 µM [25] was 100%, the remaining activity at 1 µM [26] was 100% and the remaining activity at 1 µM [27] was 62%. For the same compound, the remaining activity at 1 µM [28] was 100% and the remaining activity at 1 µM [29] was 100%.
In the case of CCN1CCN(Cc2ccc(NC(=O)c3ccc(C)c(CCc4cnc5[nH]ccc5c4OC)c3)cc2C(F)(F)F)CC1 [HYJ-2-002-1], the remaining activity at 1 µM [1, 31] is reported as 34% and the remaining activity at 1 µM [3, 31] is reported as 76%.
